Experimental data published in the supplement of paper PMC11061612.

Legend:
[1] = tested on: IA-LM (Non-Small Cell Lung Carcinoma); test: combination Emax (second highest fraction inhibited in the dose matrix, 72 h); higher = more inhibition; extreme values may be limits of the assay
Method in brief: (§1)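 Cell lines in DMEM/F12 or RPMI with 10% FBS were plated in 1536-well plates, held 24 hours at 37°C, 5% CO2, then given two-drug dose matrices for 72 hours (DMSO typically 0.2%). Viability was read by CellTiter-Glo 2.0 luminescence and scaled as inhibition from 0 (vehicle wells) to 1 (blank wells). Combination Emax is the second-highest inhibition in the matrix; Bliss excess is observed combination effect minus expected EA + EB − EA·EB, EA and EB being single-agent effects.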

[2] = tested on: IST-MEL1 (Melanoma); test: as above
Method in brief: as §1

[3] = tested on: Raji (Burkitt's Lymphoma); test: as above
Method in brief: as §1

[4] = tested on: NCI-H1963 (Small Cell Lung Carcinoma); test: Bliss excess, mean over the matrix (fraction); higher = more synergy
Method in brief: as §1

[5] = tested on: NCI-H596 (Other Solid Carcinomas); test: as above
Method in brief: as §1

[6] = tested on: C-33-A (Cervical Carcinoma); test: as above
Method in brief: as §1

[7] = tested on: TUR (Acute Myeloid Leukemia); test: as above
Method in brief: as §1

[8] = tested on: T84 (Colorectal Carcinoma); test: as above
Method in brief: as §1

[9] = tested on: BHT-101 (Thyroid Gland Carcinoma); test: as above
Method in brief: as §1

[10] = tested on: MONO-MAC-6 (Acute Myeloid Leukemia); test: as above
Method in brief: as §1

[11] = tested on: SCC-4 (Oral Cavity Carcinoma); test: as above
Method in brief: as §1

[12] = tested on: ES6 (Ewing's Sarcoma); test: as above
Method in brief: as §1

[13] = tested on: KP-4 (Pancreatic Carcinoma); test: as above
Method in brief: as §1

[14] = tested on: MOLT-13 (T-Lymphoblastic Leukemia); test: as above
Method in brief: as §1

[15] = tested on: SiHa (Cervical Carcinoma); test: as above
Method in brief: as §1

[16] = tested on: SNU-407 (Colorectal Carcinoma); test: as above
Method in brief: as §1

[17] = tested on: OVCAR-3 (Ovarian Carcinoma); test: as above
Method in brief: as §1

[18] = tested on: SAT (Head and Neck Carcinoma); test: as above
Method in brief: as §1

[19] = tested on: KALS-1 (Glioblastoma); test: as above
Method in brief: as §1

[20] = tested on: LS-1034 (Colorectal Carcinoma); test: as above
Method in brief: as §1
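Wherever Bliss excess, mean over the matrix is given: after 72 h of two-drug dosing.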

SMILES	combination Emax [1]	combination Emax [2]	combination Emax [3]	Bliss excess [4]	Bliss excess [5]	Bliss excess [6]	Bliss excess [7]	Bliss excess [8]	Bliss excess [9]	Bliss excess [10]	Bliss excess [11]	Bliss excess [12]	Bliss excess [13]	Bliss excess [14]	Bliss excess [15]	Bliss excess [16]	Bliss excess [17]	Bliss excess [18]	Bliss excess [19]	Bliss excess [20]
CC1(C)CCC(CN2CCN(c3ccc(C(=O)NS(=O)(=O)c4ccc(NCC5CCOCC5)c([N+](=O)[O-])c4)c(Oc4cnc5[nH]ccc5c4)c3)CC2)=C(c2ccc(Cl)cc2)C1 [Venetoclax] + C1CN(CCC1(C(=O)N[C@@H](CCO)C2=CC=C(C=C2)Cl)N)C3=NC=NC4=C3C=CN4 [Capivasertib] (first compound max 1 µM, 7x7, partner max 3 µM)	0.189	0.36	0.132	-0.0031	-0.0211	-0.0453	-0.0176	-0.0518	-0.0312	-0.0214	-0.0792	-0.0858	-0.0623	0.0354	-0.002	-0.0204	-0.0288	-0.0422	-0.0501	-0.0214
COc1cccc(OCCCN)c1-c1cc(Nc2cnc(C#N)cn2)n[nH]1 [Prexasertib] + C[C@@H]1COCCN1C2=NC(=NC(=C2)C3(CC3)[S@](=N)(=O)C)C4=C5C=CNC5=NC=C4 [AZD6738] (first compound max 1 µM, 7x7, partner max 10 µM)	0.459	0.817	0.956	-0.0231	0.0159	0.0091	0.0298	-0.0026	0.0322	0.0104	-0.0323	0.0366	0.0072	0.002	0.0191	-0.0094	0.032	-0.0238	-0.0557	0.035
CC1(C)CCC(CN2CCN(c3ccc(C(=O)NS(=O)(=O)c4ccc(NCC5CCOCC5)c([N+](=O)[O-])c4)c(Oc4cnc5[nH]ccc5c4)c3)CC2)=C(c2ccc(Cl)cc2)C1 [Venetoclax] + CCN(CCO)CCCOc1ccc2c(Nc3cc(CC(=O)Nc4cccc(F)c4)[nH]n3)ncnc2c1 [AZD2811] (first compound max 1 µM, 7x7, partner max 1 µM)	0.249	0.504	0.122	0.0196	-0.0394	-0.0928	0.0132	-0.0249	-0.0256	0.101	-0.0404	-0.0166	-0.0338	0.055	-0.0107	-0.036	-0.0087	-0.0043	0.0005	-0.0328
CN(CCO)CC[C@H](CSc1ccccc1)Nc1ccc(S(=O)(=O)NC(=O)c2ccc(N3CCC([C@@H](O)c4ccccc4-c4ccc(Cl)cc4)CC3)cc2)cc1S(=O)(=O)C(F)(F)F [AZD4320] + C=CCn1c(=O)c2cnc(Nc3ccc(N4CCN(C)CC4)cc3)nc2n1-c1cccc(C(C)(C)O)n1 [AZD1775] (first compound max 1 µM, partner max 1 µM)	0.462	0.85	0.591	0.0565	0.0361	-0.0246	0.0015	-0.0408	0.0142	0.117	0.0838	0.0586	-0.0187	0.064	-0.0358	-0.0677	0.0007	-0.0251	0.0252	0.0344
Cc1c2c(nn1C)CSCc1cc(n(C)n1)CSc1cc(c3ccccc3c1)OCCCc1c(C(=O)O)n(C)c3c-2c(Cl)ccc13 [AZD5991] + CN(C)CCCOc1ccc(-c2ccc3ncc4c(c3c2)n(C2CCOCC2)c(=O)n4C)cn1 [AZD0156] (first compound max 1 µM, 7x7, partner max 1 µM)	0.257	0.196	0.704	0.0225	-0.0088	-0.0089	0.0377	-0.0112	0.0638	-0.0433	-0.0232	-0.0113	0.0187	-0.0198	0.0341	-0.463	0.0405	-0.0186	0.0151	-0.0032
Cc1cc2ncnn2cc1Nc1ncc2c(n1)n(C1CCOCC1)c(=O)n2C [AZD7648] + CN(C)CCCOc1ccc(-c2ccc3ncc4c(c3c2)n(C2CCOCC2)c(=O)n4C)cn1 [AZD0156] (first compound max 10 µM, 7x7, partner max 1 µM)	0.35	0.275	0.227	0.0494	-0.002	0.033	0.0283	0.0332	0.0659	-0.0869	-0.0164	-0.0234	0.0228	0.0053	-0.0074	-0.0385	0.0157	0.0062	0.015	-0.0187
